Source: paper PMC2118486 (The Journal of Experimental Medicine, 2007)

What was measured:
[1] = mouse, 37°C, up to 60 min
[2] = tested on: purified peritoneal mast cells (Mc-cpa); format: in vitro ADME, mouse; details: Mc-cpaY356L,E378A mast cells, 2 μM ionomycin, 37°C, 60 min; reduced (DTT/IAA) sample; MALDI-TOF

| Substance | not cleaved [1] | internal cleavage of S6b [2] |
| --- | --- | --- |
| Cys-Ser-Cys-Ser-Ser-Leu-Met-Asp-Lys-Glu-Cys-Val-Tyr-Phe-Cys-His-Leu-Asp-Ile-Ile-Trp | ET-1 (1–21) was also maintained |  |
| sarafotoxin 6b [S6b] |  | reaction products consistent with the masses of 1–13 and 1–14 fragments of S6b |
